This test deals with phosphorylated PKB (Ser473). Kind of test: Western blot of active. The format is cell-based, human. The settings on record: PANC-1, CFPAC-1 and HPAF-II cell lysates (all three cell lines); 1 μM wortmannin for 10 min prior to lysis.

With `COC[C@H]1OC(=O)c2coc3c2[C@@]1(C)C1=C(C3=O)[C@@H]2CCC(=O)[C@@]2(C)C[C@H]1OC(C)=O` [wortmannin], the “amount of phosphorylated Ser473 (pSer473) of PKB by Western blot” value is listed as “decreased”.
